# In US20250213499A1, “COMPOSITION FOR PREVENTING OR TREATING ISCHEMIC STROKE, CONTAINING SOBREROL AS ACTIVE INGREDIENT” (NEUROLMED CO., LTD, priority 2020, published 2025):
# Tested on: focal cerebral ischemia induced by middle cerebral artery occlusion and reperfusion (MCAO/R)
# Test: Rodent cerebral ischemia model (MCAO/R): volume of cerebral infarction area by TTC staining
# Format: in vivo, mice (C57/BL6)
# Details: for cerebral infarction volume due to focal cerebral ischemia (FIG. 3): TTC-stained brain slices, ImageJ, *** p<0.001
# Description: 12- to 13-week-old male mice (C57/BL6) were used in the experiment. The mice were divided into four groups of five each (three in the Sham group): Sham (surgical control group), stroke surgery group (Stroke), stroke+sobrerol-L (administration of 10 mg/kg of SOB-L), and stroke+sobrerol-H (administration of 40 mg/kg of SOB-H). According to the schematic view shown in FIG. 1, middle cerebral artery occlusion and reperfusion operation (MCAO/R) was performed to induce focal cerebral ischemia. After MCAO/R surgery, sobrerol was orally administered at concentrations of 10 mg/kg and 40 mg/kg. In the Sham and Stroke control groups, saline was orally administered. Neurological deficit tests were performed 22-23 hours after MCAO/R (n=5). After re-anesthesia, cardiac reperfusion in mice was carried out with PBS solution, and the brains were immediately removed and stained with 2% TTC (2,3,5-triphenyl-tetrazolium chloride) solution. TTC-stained slices were obtained from the mice in four groups, particularly Sham (surgical control group), stroke surgery group (Stroke), stroke+sobrerol-L (administration of 10 mg/kg of SOB-L), and stroke+sobrerol-H (administration of 40 mg/kg of SOB-H), and the volume of the cerebral infarction area was measured. Quantification was measured using ImageJ.
structure (smiles),measurement,setting,value
"CC1=CCC(C(C)(C)O)CC1O (centres unmarked) [sobrerol, 5-(2-hydroxypropan-2-yl)-2-methylcyclohex-2-en-1-ol]",cerebral infarction volume due to focal cerebral ischemia (FIG. 3),10 mg/kg oral after MCAO/R (sobrerol-L),significantly reduced
same,damage status of ischemic brain tissue in TTC-stained slices (FIG. 2),"40 mg/kg oral (stroke+sobrerol-H) compared to sobrerol-L, Stroke and Sham groups, red area = undamaged, white = infarction",undamaged
same,cerebral infarction volume due to focal cerebral ischemia (FIG. 3),40 mg/kg oral after MCAO/R (sobrerol-H),significantly reduced
same,damage status of ischemic brain tissue in TTC-stained slices (FIG. 2),"group orally administered sobrerol compared to the other groups, dose not given",red undamaged area without cerebral infarction area
same,infarction size,"stroke animal model, compared to the group not administered a stroke drug, dose not stated",decrease
